# Experimental data: patent publication US5792622A, “Assay for chemicals” (priority 1995, dated 1998)
# “Also recorded” adds a separate entry of the source. Like-named read-outs stand apart in the source and are kept apart here.
# Key:
# [1] = cited from earlier work; for Microtox IC50: Table 8
# [2] = test system: R. meliloti; assay: microbe, parasite or virus in culture; type: cell-based
# [3] = test system: R. sphaeroides; type: cell-based; settings: Table 1, incubation 11:25 hrs
# [4] = test system: R. meliloti; type: cell-based; settings: for absorbance of reduced dye: Table 1, incubation 2:00 hrs
# [5] = test system: S. typhimurium; type: cell-based; settings: Table 1, incubation 2:00 hrs
# [6] = test system: B. japonicum; type: cell-based; settings: Table 1, incubation 7:48 hrs
# [7] = test system: B. megaterium; type: cell-based; settings: Table 1, incubation 2:00 hrs
# [8] = test system: S. lactis; type: cell-based; settings: Table 1, incubation 9:57 hrs
# [9] = test system: Ps fluorescens; type: cell-based; settings: Table 1, incubation 1:57 hrs
# [10] = test system: R. leguminosarum; type: cell-based; settings: Table 1, incubation 7:48 hrs
# [11] = test system: E. coli; type: cell-based; settings: Table 1, incubation 1:40 hrs
# [12] = test system: A. crystallopoites; type: cell-based; settings: Table 1, incubation 2:00 hrs
# [13] = test system: fish (trout fingerlings); settings: Table 8, trout fingerlings; cited from earlier work
# [14] = test system: Rhodobacter sphaeroides; assay: Inhibition of tetrazolium dye reduction by Rhodobacter sphaeroides; type: cell-based
# Procedure: The other strains of bacteria, mixed in a buffer with various toxic chemicals, which were tested with the tetrazolium dye, gave varying results. Some bacteria reduced the dye, but the reduction was not inhibited appreciably by toxic chemicals. The absorbance of tetrazolium by Rhodobacter sphaeroides was not inhibited by copper. E. coli reduced the dye, but reduction was not inhibited by xylene. […] FIG. 1 is a graph showing data comparing the absorbance of the bacteria R. meliloti and E. coli at A590 varying between 0.0 and 0.3 in reacting with different toxins.
# [15] = Sinorhizobium meliloti, Table 4, organic compounds, read-out: average (ppm), concentration giving 50% inhibition of dye reduction
# [16] = ratio of the inhibitory concentrations
# [17] = rhizobium meliloti mtt reduction
compound,measurement,setting,value
CC(C)=O [Acetone],Microtox ppm,[1]; microtox bioluminescence,"13305-29,109"
same,IC50,"[2]; Sinorhizobium meliloti, read-out: IC50 ppm",71600 µg/mL
same,IC50,"[2]; Sinorhizobium meliloti, read-out: Rhizobium/Tetrazolium ppm",1640 µg/mL
"c1ccc(-c2nn(-c3ccccc3)[n+](-c3cccc4ccccc34)n2)cc1 [TV, 2,5-diphenyl-3-(α-napthyl)tetrazolium chloride]",absorbance of reduced dye,[3],0.12
same,absorbance of reduced dye,[4],0.08
same,rate of reduction of the dye,[4]; in words,reduced more slowly than MTT
same,absorbance of reduced dye,[5],0.04
same,absorbance of reduced dye,[6],0.14
same,absorbance of reduced dye,[7],0.07
same,absorbance of reduced dye,[8],0.04
same,absorbance of reduced dye,[9],0.01
same,absorbance of reduced dye,[10],0
same,absorbance of reduced dye,[11],0.03
same,absorbance of reduced dye,[12],0.08
[Co] [Cobalt],ppm (50% inhibition of dye reduction),"[2]; Table 7, minerals",11.200 ppm
ClC=C(Cl)Cl [trichloroethylene],IC50,[2]; [15],59.5 µg/mL
"O=[N+]([O-])c1ccc(-[n+]2nc(-c3ccccc3)nn2-c2ccc(I)cc2)cc1 [INT, 2-(4-iodophenyl)-3-(4-nitrophenyl)-5-phenyltetrazolium chloride]",absorbance of reduced dye,[3],0.95
same,absorbance of reduced dye,[4],0.48
same,absorbance of reduced dye,[5],0.06
same,absorbance of reduced dye,[6],0.44
same,absorbance of reduced dye,[7],0.16
same,absorbance of reduced dye,[8],0.08
same,absorbance of reduced dye,[9],0.17
same,absorbance of reduced dye,[10],0.02
same,absorbance of reduced dye,[11],0.12
same,absorbance of reduced dye,[12],0.14
Oc1ccccc1 [Phenol],Microtox ppm,[1]; microtox bioluminescence,623
same,sensitivity of Rhizobium/Tetrazolium assay compared with Microtox assay,[2],at least an order of magnitude more sensitive than the Rhizobium/Tetrazolium assay
same,IC50,"[2]; Sinorhizobium meliloti, read-out: Rhizobium/Tetrazolium IC50",1220 µg/mL
same,IC50,"[2]; Sinorhizobium meliloti, read-out: average (ppm), concentration giving 50% inhibition of dye reduction",1320 µg/mL
same,Fish LD50 (50% death of the fish),[13],50-100 ppm
"Oc1c(Cl)c(Cl)c(Cl)c(Cl)c1Cl [Pentachlorophenol, pentachlorophenol]",Microtox IC50,[1],2.46-2.71 ppm
same,Microtox ppm,[1]; Table 9,2.46-2.71 ppm
same,inhibition compared with trichlorophenol,[2],an order of magnitude greater
same,absorbance at which the reduction stopped,"[2]; A550, FIGS. 3 and 5",≤ 0.25
same,IC50,[2]; [15],0.206 µg/mL
same,IC50,"[2]; Sinorhizobium meliloti, Table 8, read-out: Rhizobium/Tetrazolium IC50",0.143 µg/mL
same,sensitivity of Rhizobium/Tetrazolium assay compared with Microtox assay,[2]; [16],at least an order of magnitude more sensitive for 4 compounds; also recorded: two orders of magnitude more sensitive
"O=C1C(Cl)=CC(=Nc2ccc(O)cc2)C=C1Cl [DCIP, 2,6-dichlorophenol-indophenol]",rate of reduction of the dye,[4],reduced very slowly
"COc1cc(-c2ccc(-n3nc(-c4ccccc4)n[n+]3-c3ccccc3)c(OC)c2)ccc1-n1nc(-c2ccccc2)n[n+]1-c1ccccc1 [TB, 3,3'-[3,3'-dimethoxy(1,1'-biphenyl)-4,4'-diyl]-bis(2,5-diphenyl-2H-tetrazolium)dichloride]",absorbance of reduced dye,[4],0.12
same,absorbance of reduced dye,[5],0.22
same,absorbance of reduced dye,[6],0.02
same,absorbance of reduced dye,[7],0.17
same,absorbance of reduced dye,[8],0.04
same,absorbance of reduced dye,[9],0.05
same,absorbance of reduced dye,[10],0
same,absorbance of reduced dye,[11],0.04
same,absorbance of reduced dye,[12],0.22
[Mn+2] [Manganese],ppm (50% inhibition of dye reduction),[2]; [17],0.892
[Cd] [Cadmium],Microtox IC50,[1],416 ppm
same,ppm (50% inhibition of dye reduction),"[2]; Table 7, minerals",0.838 ppm
same,Rhizobium/Tetrazolium IC50,[2]; Table 8,0.210 ppm
same,sensitivity of Rhizobium/Tetrazolium assay compared with Microtox assay,[2]; [16],at least an order of magnitude more sensitive for 4 compounds
same,Fish LD50 (50% death of the fish),[13],1.0-100 ppm
ClC(Cl)Cl [Chloroform],IC50 (amount per tube),[2],6.10 mg/tube
same,IC50 volume,[2],827 µL
same,IC50,[2]; [17],4132 ppm
same,"average (ppm), concentration giving 50% inhibition of dye reduction",[2]; [17],2032
O=C1NS(=O)(=O)c2ccccc21 [saccharin],absorbance to which the reduction would eventually go,[2],0.0
same,IC50,[2]; Sinorhizobium meliloti,477 µg/mL
"COc1cc(-c2ccc(-n3nc(-c4ccccc4)n[n+]3-c3ccc([N+](=O)[O-])cc3)c(OC)c2)ccc1-n1nc(-c2ccccc2)n[n+]1-c1ccc([N+](=O)[O-])cc1 [NBT, 2,2'-di-nitrophenyl-5,5'-diphenyl-3,3'(-3,3'-dimethoxy-4,4'-diphenylene)ditetrazolium chloride]",absorbance of reduced dye,[3],0.16
same,absorbance of reduced dye,[4],0.16
same,absorbance of reduced dye,[5],0.24
same,absorbance of reduced dye,[6],0.01
same,absorbance of reduced dye,[7],0.19
same,absorbance of reduced dye,[8],0.06
same,absorbance of reduced dye,[9],0.04
same,absorbance of reduced dye,[10],0
same,absorbance of reduced dye,[11],0.1
same,absorbance of reduced dye,[12],0.27
"O=S(=O)([O-])[O-].[Mg+2] [Magnesium, Magnesium sulfate]",ppm (50% inhibition of dye reduction),"[2]; Table 7, minerals",59.900 ppm
same,IC50,[2]; read-out: toxic concentration in mM equivalent to ppm of Table 7,0.243 mM
"[Cl-].[Na+] [NaCl, sodium chloride]",IC50,"[2]; FIG. 12, 10% NaCl solution","60,689 ppm"
same,IC50 volume,"[2]; FIG. 12, 10% NaCl solution, 590 nm",606.89 µL
same,absorbance reached,"[2]; at 1000 μl of 10% NaCl solution, 590 nm",0.1
[Cu] [Copper],Microtox IC50,[1],24.96 ppm
same,effect on the reduction of the dye at very low concentrations,[2]; FIG. 10,stimulates the reduction of the dye at very low concentrations
same,ppm (50% inhibition of dye reduction),"[2]; Table 7, minerals",0.960 ppm
same,Rhizobium/Tetrazolium IC50,[2]; Table 8,0.240 ppm
same,sensitivity of Rhizobium/Tetrazolium assay compared with Microtox assay,[2]; [16],at least an order of magnitude more sensitive for 4 compounds
same,inhibition of absorbance of tetrazolium,[14],not inhibited
same,Fish LD50 (50% death of the fish),[13],0.1-10.7 ppm
